Data published in US10760065B2, “Tuning microbial populations with programmable nucleases” (priority 2013, dated 2020).
Converted amounts (≈) assume the structure as drawn.

What was measured:
EMG2 Wild-Type = experiment: microbe, parasite or virus in culture; assay type: cell-based, E. coli; settings: strain EMG2 Wild-Type, LB broth; for MIC: Escherichia coli, read-out: Minimum Inhibitory Concentration (MIC)
Experimental: (§1) MICs were determined by broth microdilution using LB broth according to the CLSI guidelines (Clinical and Laboratory Standards Institute. Methods for Dilution Antimicrobial Susceptibility Tests for Bacteria That Grow Aerobically; Approved Standard—Seventh Edition. 64 (2006)).

EMG2 gyrAD87G = experiment: MIC determination by broth microdilution; assay type: cell-based, E. coli; settings: strain EMG2 gyrAD87G, LB broth; for MIC: Escherichia coli, read-out: Minimum Inhibitory Concentration (MIC)
Experimental: as §1

EMG2 pSHV-18 = experiment: MIC determination by broth microdilution; assay type: cell-based, E. coli; settings: strain EMG2 pSHV-18, LB broth; for MIC: Escherichia coli, read-out: Minimum Inhibitory Concentration (MIC)
Experimental: as §1

EMG2 pNDM-1 = experiment: MIC determination by broth microdilution; assay type: cell-based, E. coli; settings: strain EMG2 pNDM-1, LB broth; for MIC: Escherichia coli, read-out: Minimum Inhibitory Concentration (MIC)
Experimental: as §1

EHEC = experiment: Galleria mellonella infection model, survival; assay type: in vivo; settings: ΦRGNeae MOI ~30; chloramphenicol or carbenicillin 32 mg/kg; Log-rank p<0.05
Experimental: Galleria mellonella larvae were injected with either PBS (uninfected) or approximately 4×10^5 colony forming units (CFU) of EHEC. […] Survival curves represent an aggregate of four independent experiments, each with 20 worms per treatment group (n=80). […] G. mellonella larvae (n=40) were injected with PBS or approximately 3×10^5 colony forming units (CFU) of EHEC. Larvae were subsequently treated with PBS, ΦRGNeae at MOI ˜30, chloramphenicol, or carbenicillin. The antibiotics were both applied at a concentration of 32 mg/kg, corresponding to the CLSI resistance breakpoints for Enterobacteriaceae (32 μg/mL).
Larvae of the model organism Galleria mellonella (Desbois, A. P. & Coote, P. J. Adv. Appl. Microbiol. 78, 25-53 (2012)) were purchased from Vanderhorst Wholesale, Inc. (St. Marys, Ohio, USA) and received in the final larval instar for survival assays. Larvae were removed from food source, allowed to acclimate for at least 24 h at room temperature in the dark, and used within 4 days of receipt. […] Larvae were incubated at 37° C. and survival was monitored at 12 hour intervals for 72 hours, with death indicated by lack of movement and unresponsiveness to touch (Desbois, A. P. & Coote, P. J. Adv. Appl. Microbiol. 78, 25-53 (2012)). Kaplan-Meier survival curves were generated on the data pooled from four independent experiments and analyzed with the log-rank test using GraphPad Prism.

EHEC strain = experiment: Antibiotic susceptibility of the EHEC strain; assay type: cell-based, E. coli

Molecule: CC1COc2c(N3CCN(C)CC3)c(F)cc3c(=O)c(C(=O)O)cn1c23 (stereo not shown) [OFX, ofloxacin]
- MIC (EMG2 Wild-Type): 0.125 µg/mL (≈ 0.346 µM)
- MIC (EMG2 gyrAD87G): 0.5 µg/mL (≈ 1.38 µM)

Molecule: gentamicin
- Minimum Inhibitory Concentration (MIC) (EMG2 Wild-Type): 4 µg/mL
- Minimum Inhibitory Concentration (MIC) (EMG2 pSHV-18): >64 µg/mL
- Minimum Inhibitory Concentration (MIC) (EMG2 pNDM-1): >64 µg/mL
- Minimum Inhibitory Concentration (MIC) (EMG2 gyrAD87G): 4 µg/mL

Molecule: CC(C)(O/N=C(\C(=O)N[C@@H]1C(=O)N2C(C(=O)[O-])=C(C[n+]3ccccc3)CS[C@H]12)c1csc(N)n1)C(=O)O [CAZ, ceftazidime]
- MIC (EMG2 Wild-Type): 0.25 µg/mL (≈ 0.457 µM)
- MIC (EMG2 pSHV-18): 1 µg/mL (≈ 1.83 µM)
- MIC (EMG2 pNDM-1): > 64 µg/mL

Molecule: CC1(C)S[C@@H]2[C@H](NC(=O)C(C(=O)O)c3ccccc3)C(=O)N2[C@H]1C(=O)O (stereo partly shown) [carbenicillin]
- survival of EHEC-infected larvae, comparison with antibiotics (EHEC): superior to ΦRGNeae treatment
- susceptibility of EHEC strain (EHEC strain): susceptible

Molecule: C[C@@H](O)[C@H]1C(=O)N2C(C(=O)O)=C(SCCN=CN)C[C@H]12 [IPM, imipenem]
- MIC (EMG2 Wild-Type): 0.25 µg/mL (≈ 0.835 µM)
- MIC (EMG2 pNDM-1): 32 µg/mL (≈ 107 µM)

Molecule: CO/N=C(\C(=O)N[C@@H]1C(=O)N2C(C(=O)O)=C(COC(C)=O)CS[C@H]12)c1csc(N)n1 [CTX, cefotaxime]
- MIC (EMG2 Wild-Type): ≤ 0.0625 µg/mL
- MIC (EMG2 pSHV-18): 0.25 µg/mL (≈ 0.549 µM)
- MIC (EMG2 pNDM-1): > 64 µg/mL
- MIC (EMG2 gyrAD87G): ≤ 0.0625 µg/mL

Molecule: CC1(C)S[C@@H]2[C@H](NC(=O)[C@H](N)c3ccccc3)C(=O)N2[C@H]1C(=O)O [AMP, ampicillin]
- MIC (EMG2 Wild-Type): 2 µg/mL (≈ 5.72 µM)
- MIC (EMG2 pSHV-18): 64 µg/mL (≈ 183 µM)
- MIC (EMG2 pNDM-1): > 64 µg/mL
- MIC (EMG2 gyrAD87G): 4 µg/mL (≈ 11.4 µM)

Molecule: O=C(N[C@H](CO)[C@H](O)c1ccc([N+](=O)[O-])cc1)C(Cl)Cl [chloramphenicol]
- susceptibility of EHEC strain (EHEC strain): resistant
